{"source": "ChEMBL document CHEMBL5528070", "about": "“Design and Synthesis of Dual-Target Inhibitors Targeting Androgen Receptors and Glucocorticoid Receptors to Overcome Antiandrogen Resistance in Castration-Resistant Prostate Cancer” (J Med Chem, 2024)", "key": {"Glucocorticoid receptor [1]": {"target": "T1, Glucocorticoid receptor (Homo sapiens, UniProt P04150)", "T1 sequence (P04150 whole entry)": "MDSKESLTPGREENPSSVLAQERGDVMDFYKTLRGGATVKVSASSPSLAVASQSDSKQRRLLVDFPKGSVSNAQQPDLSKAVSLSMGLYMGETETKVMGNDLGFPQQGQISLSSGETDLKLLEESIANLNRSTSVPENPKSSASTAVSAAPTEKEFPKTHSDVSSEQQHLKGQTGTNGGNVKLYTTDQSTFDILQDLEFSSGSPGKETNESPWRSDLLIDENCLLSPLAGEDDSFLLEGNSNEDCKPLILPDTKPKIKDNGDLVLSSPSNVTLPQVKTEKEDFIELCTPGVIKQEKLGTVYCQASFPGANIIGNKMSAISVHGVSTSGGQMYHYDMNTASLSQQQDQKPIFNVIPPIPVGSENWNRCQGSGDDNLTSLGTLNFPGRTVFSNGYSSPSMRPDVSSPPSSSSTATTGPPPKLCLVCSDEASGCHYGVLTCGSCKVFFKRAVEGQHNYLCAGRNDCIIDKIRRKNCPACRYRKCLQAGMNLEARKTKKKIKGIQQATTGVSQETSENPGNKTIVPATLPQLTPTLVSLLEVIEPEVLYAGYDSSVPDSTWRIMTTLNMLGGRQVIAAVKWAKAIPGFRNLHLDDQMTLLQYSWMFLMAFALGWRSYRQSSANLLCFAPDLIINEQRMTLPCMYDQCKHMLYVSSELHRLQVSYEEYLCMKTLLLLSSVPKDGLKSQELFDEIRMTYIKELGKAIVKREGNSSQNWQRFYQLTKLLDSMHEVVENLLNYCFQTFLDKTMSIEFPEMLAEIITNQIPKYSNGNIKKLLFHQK", "conditions": "pc-3; call rule not given here"}, "Androgen receptor [2]": {"target": "T2, Androgen receptor (Homo sapiens, UniProt P10275)", "T2 sequence (P10275 whole entry)": "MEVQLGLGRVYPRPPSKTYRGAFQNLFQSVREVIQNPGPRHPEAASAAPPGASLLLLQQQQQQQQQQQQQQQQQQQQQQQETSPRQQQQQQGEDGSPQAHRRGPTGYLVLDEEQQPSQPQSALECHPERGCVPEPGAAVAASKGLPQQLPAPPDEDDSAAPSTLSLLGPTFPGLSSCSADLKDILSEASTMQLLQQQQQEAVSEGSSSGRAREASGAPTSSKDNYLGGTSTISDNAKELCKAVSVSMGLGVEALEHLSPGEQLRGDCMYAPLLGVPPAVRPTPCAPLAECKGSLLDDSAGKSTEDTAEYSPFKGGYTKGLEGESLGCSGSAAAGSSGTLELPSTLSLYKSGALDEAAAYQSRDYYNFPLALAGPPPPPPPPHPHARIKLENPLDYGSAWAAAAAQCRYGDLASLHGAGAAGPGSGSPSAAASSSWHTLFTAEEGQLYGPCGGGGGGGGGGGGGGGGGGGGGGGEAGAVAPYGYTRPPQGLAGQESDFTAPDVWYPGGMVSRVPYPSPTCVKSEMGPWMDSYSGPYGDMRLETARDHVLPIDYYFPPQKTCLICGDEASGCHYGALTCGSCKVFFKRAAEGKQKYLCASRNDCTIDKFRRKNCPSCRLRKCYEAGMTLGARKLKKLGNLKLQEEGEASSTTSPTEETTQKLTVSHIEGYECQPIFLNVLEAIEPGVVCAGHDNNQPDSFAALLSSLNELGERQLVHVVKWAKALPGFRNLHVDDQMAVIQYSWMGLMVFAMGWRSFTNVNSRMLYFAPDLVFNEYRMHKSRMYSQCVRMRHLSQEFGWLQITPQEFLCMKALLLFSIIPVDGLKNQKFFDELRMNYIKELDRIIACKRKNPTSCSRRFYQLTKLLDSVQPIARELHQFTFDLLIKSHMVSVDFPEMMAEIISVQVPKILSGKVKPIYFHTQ"}, "Androgen receptor [3]": {"target": "T2, Androgen receptor", "test": "Antagonist activity at androgen receptor in human LNCaP cells incubated for 24 hrs by luminescence based firefly luciferase assay"}, "Glucocorticoid receptor [4]": {"target": "T1, Glucocorticoid receptor", "description": "Inhibition of glucocorticoid receptor transcription in human PC-3 cells cotransfected with MMTV-luc and renilla plasmid at incubated for 24 hrs by Dual luciferase assay"}, "LNCaP": {"tested_on": "LNCaP", "test": "Antiproliferative activity against human LNCaP cells assessed as reduction in cell viability measured after 72 hrs by CCK-8 method"}, "LNCaP C4-2": {"tested_on": "LNCaP C4-2", "test": "Antiproliferative activity against human C4-2 cells assessed as reduction in cell viability measured after 72 hrs by CCK-8 method", "conditions": "LNCaP C4-2, 72 h"}, "DU-145": {"tested_on": "DU-145", "test": "Antiproliferative activity against human DU-145 cells assessed as reduction in cell viability measured after 72 hrs by CCK-8 method", "conditions": "DU-145, 72 h"}, "PC-3": {"tested_on": "PC-3", "test": "Antiproliferative activity against human PC-3 cells assessed as reduction in cell viability measured after 72 hrs by CCK-8 method", "conditions": "PC-3, 72 h"}, "[5]": {"test": "Antiproliferative activity against African green monkey COS-7 cells assessed as reduction in cell viability measured after 72 hrs by CCK-8 method", "conditions": "chlorocebus aethiops"}, "CWR22R": {"tested_on": "CWR22R", "test": "Antiproliferative activity against human 22Rv1 cells assessed as reduction in cell viability measured after 72 hrs by CCK-8 method", "conditions": "22Rv1, 72 h"}}, "data": [{"compound": "CNC(=O)c1ccc(N2C(=S)N(c3ccc(C#N)c(C(F)(F)F)c3)C(=O)C2(C)C)cc1F", "note": "[ENZALUTAMIDE]", "values": [{"measurement": "IC50", "setting": "Glucocorticoid receptor [1]", "value": "Not Active"}]}, {"compound": "CCOC(=O)c1ccc(NC(=O)c2ccc(S(=O)(=O)Nc3ccc(C)cc3)cc2)s1", "values": [{"measurement": "IC50", "setting": "Androgen receptor [2]", "value": 0.12, "unit": "µM"}]}, {"compound": "CCOC(=O)c1ccc(NC(=O)c2cccc(S(=O)(=O)N3CCCc4ccccc43)c2)s1", "values": [{"measurement": "IC50", "setting": "Androgen receptor [2]", "value": 1.7, "unit": "µM"}]}, {"compound": "CCc1cccc(NS(=O)(=O)c2cc3c4c(c2)CCC(=O)N4CCC3)c1", "values": [{"measurement": "IC50", "setting": "Androgen receptor [3]", "value": 0.394, "unit": "µM"}]}, {"compound": "O=C(Nc1ccc(C(=O)NC2CC2)s1)c1cccc(S(=O)(=O)N2CCCc3ccccc32)c1", "values": [{"measurement": "IC50", "setting": "Androgen receptor [2]", "value": 0.2, "unit": "µM"}]}, {"compound": "CCOC(=O)c1ccc(NC(=O)c2cccc(S(=O)(=O)Nc3ccc4ccccc4c3)c2)s1", "values": [{"measurement": "IC50", "setting": "Glucocorticoid receptor [4]", "value": "> 5", "unit": "µM"}]}, {"compound": "CNC(=O)c1ccc(N2C(=S)N(c3cnc(C#N)c(C(F)(F)F)c3)C(=O)C23CCC3)cc1F", "note": "[APALUTAMIDE]", "values": [{"measurement": "CC50", "setting": "LNCaP", "value": 9.72, "unit": "µM"}, {"measurement": "CC50", "setting": "LNCaP C4-2", "value": 41.7, "unit": "µM"}, {"measurement": "CC50", "setting": "DU-145", "value": "> 50", "unit": "µM"}, {"measurement": "CC50", "setting": "PC-3", "value": "> 50", "unit": "µM"}, {"measurement": "CC50 at 72 h", "setting": "[5]", "value": "> 50", "unit": "µM"}, {"measurement": "CC50", "setting": "CWR22R", "value": "> 50", "unit": "µM"}]}, {"compound": "CC(O)c1cc(C(=O)N[C@@H](C)Cn2ccc(-c3ccc(C#N)c(Cl)c3)n2)n[nH]1", "note": "(stereo not given in full) [DAROLUTAMIDE]", "values": [{"measurement": "CC50", "setting": "LNCaP", "value": 7.04, "unit": "µM"}, {"measurement": "CC50", "setting": "LNCaP C4-2", "value": 18.8, "unit": "µM"}, {"measurement": "CC50", "setting": "DU-145", "value": "> 50", "unit": "µM"}, {"measurement": "CC50", "setting": "PC-3", "value": "> 50", "unit": "µM"}, {"measurement": "CC50 at 72 h", "setting": "[5]", "value": "> 50", "unit": "µM"}, {"measurement": "CC50", "setting": "CWR22R", "value": "> 50", "unit": "µM"}]}, {"compound": "Cc1ccc(NC(=O)c2ccc(NC(=O)c3ccc(S(=O)(=O)N4CCCc5ccccc54)cc3)s2)cc1", "values": [{"measurement": "IC50", "setting": "Androgen receptor [2]", "value": "> 5", "unit": "µM"}]}, {"compound": "O=C(Nc1ccc(C(=O)NC23C[C@H]4C[C@H](C2)C[C@@H](C3)C4)s1)c1cccc(S(=O)(=O)N2CCCc3ccccc32)c1", "values": [{"measurement": "IC50", "setting": "Androgen receptor [2]", "value": 0.12, "unit": "µM"}]}]}
